One test concerns the target T1, PD-L1 (Homo sapiens, UniProt Q9NZQ7).
T1 construct: determine if they can specifically dimerize the extracellular domains of PD-L1
Kind of test: PD-L1/PD-L1 dimerization biochemical protein-protein interaction assay (ALPHA). The format is binding. The note with it: compound-induced PD-L1 dimerization, head prints '1 nM' (0.5 nM His-tagged PD-L1 and 0.5 nM FLAG-tagged PD-L1), read-out: AC50 PDL1 Dimer Alpha 1 nM. Put shortly:
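ALPHA proximity assay of compound-induced dimerization of 0.5 nM His-tagged and 0.5 nM FLAG-tagged PD-L1 extracellular domains in Hepes pH 7.4 buffer, 2 h at 25 °C. Anti-His acceptor then anti-FLAG donor beads, 60 min each; AC50 from four-parameter fit.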

In a further test the target is PD-1/PD-L1 (Homo sapiens, UniProt Q9NZQ7). Kind of test: PD-1/PD-L1 biochemical protein-protein interaction assay (ALPHA). The format is binding. The note with it: 0.3 nM His tagged PD-L1, 2.5 nM biotinylated Fc-PD-1, 60 minutes at 25° C., read-out: IC50 PD-L1-PD-1 Alpha IC50-mono PD-L1-fcP-D1. The method in brief: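 Final concentrations 0.3 nM His-tagged PD-L1 and 2.5 nM biotinylated Fc-PD-1 (extracellular domains) were reacted with compound for 60 min at 25° C in pH 7.4 Hepes/NaCl/EDTA/Tween/BSA buffer. Binding was then detected by ALPHA beads, and IC50 values were taken from four-parameter curve fitting.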

In another test the target is T2, PD-1/PD-L1 interaction (Homo sapiens, UniProt Q9NZQ7).
T2 construct: expressed in transfected cells; host or cells: CHO cells (aAPC-PD-L1) co-cultured with Jurkat cells overexpressing PD-1 and an NFAT-luciferase reporter
Kind of test: PD-1/PD-L1 NFAT reporter co-culture assay. It counts as cell-based. The note with it: Jurkat PD-1 NFAT-luciferase cells co-cultured with aAPC-PD-L1 CHO cells, 6 hrs at 37° C.; read-out: EC50 NFAT Luciferase. Put shortly: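 CHO aAPC-PD-L1 seeded overnight; PD-1/NFAT-luc Jurkat + cpd in RPMI 1640, 2% FBS added at once; 6 h, 37 °C; ONE-Glo luminescence; EC50, 4-parameter fit.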

Sequence of PD-1/PD-L1 (Q9NZQ7 19-238 limits assumed): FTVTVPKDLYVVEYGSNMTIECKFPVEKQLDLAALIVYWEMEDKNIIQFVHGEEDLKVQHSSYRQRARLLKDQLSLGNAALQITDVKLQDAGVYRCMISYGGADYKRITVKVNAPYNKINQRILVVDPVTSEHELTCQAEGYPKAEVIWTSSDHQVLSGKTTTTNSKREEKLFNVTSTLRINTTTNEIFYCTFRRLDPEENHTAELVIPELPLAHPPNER
T1 sequence (Q9NZQ7 19-238 limits assumed): as above
T1 sequence (Q9NZQ7 19-238 limits assumed): as above
T2 sequence (Q9NZQ7 19-290): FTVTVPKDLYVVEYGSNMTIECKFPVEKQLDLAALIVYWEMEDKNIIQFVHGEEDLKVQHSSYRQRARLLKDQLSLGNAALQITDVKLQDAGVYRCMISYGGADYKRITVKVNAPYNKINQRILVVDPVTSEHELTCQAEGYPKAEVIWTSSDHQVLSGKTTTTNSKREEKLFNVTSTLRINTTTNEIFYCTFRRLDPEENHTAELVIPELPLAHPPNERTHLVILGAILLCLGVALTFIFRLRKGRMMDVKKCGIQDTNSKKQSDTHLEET

Broadly, the AC50 is the concentration at which the activity in the assay is half-maximal. The term IC50 denotes the midpoint of a concentration-inhibition curve. For orientation: EC50 means the concentration that produces a half-maximal response. For the compound `Cc1c(COc2cc(OCc3cncc(C#N)c3)c(CNCCO)cc2Cl)cccc1-c1cccc(-c2ccc(CNCCO)cc2)c1CF` [Example 365, 5-((4-chloro-5-((2′-(fluoromethyl)-4″-(((2-hydroxyethyl)amino)methyl)-2-methyl-[1,1′:3′,1″-terphenyl]-3-yl)methoxy)-2-(((2-hydroxyethyl)amino)methyl)phenoxy)methyl)nicotinonitrile], the half-maximal activity concentration (AC50) on PD-L1 amounted to 174 nM. Moreover, the IC50 on PD-1/PD-L1 was 1.57 nM. The EC50 on PD-1/PD-L1 interaction came to 408 nM.
In the case of `COc1nc(O[C@H]2CCc3c(-c4cccc(-c5cnc(CN[C@@H]6CCC[C@@H]6O)c(OC)n5)c4Cl)cccc32)c(Cl)cc1CN[C@@](C)(CO)C(=O)O` [Example 648], the AC50 on PD-L1 was 60.9 nM. The 50% inhibitory concentration (IC50) on PD-1/PD-L1 turned out to be 0.064 nM. In addition, the 50% effective concentration (EC50) at PD-1/PD-L1 interaction turned out to be 57 nM.
Take `COc1nc(-c2cccc(-c3cccc(-c4ccc5c(c4)[C@H](O)C[C@@H]5N)c3Cl)c2Cl)ccc1CNC[C@@H]1CCC(=O)N1` [Example 611]: the half-maximal activity concentration (AC50) at PD-L1 came out at 408 nM. The IC50 on PD-1/PD-L1 was 0.482 nM. In addition, the EC50 on PD-1/PD-L1 interaction was determined as 223 nM.
The matching figures for `Cc1c(COc2cc(OCc3cncc(C#N)c3)c(CN[C@@](C)(CO)C(=O)O)cc2Cl)cccc1-c1cccc(-c2ccc(OCCNCCO)cc2)c1C` [Example 311, (S)-2-((5-chloro-2-((5-cyanopyridin-3-yl)methoxy)-4-((4″-(2-((2-hydroxyethyl)amino)ethoxy)-2, 2′-dimethyl-[1, 1′:3′,1″-terphenyl]-3-yl)methoxy)benzyl)amino)-3-hydroxy-2-methylpropanoic acid]: 75.5 nM, 0.064 nM and 104 nM.
The matching figures for `Cc1c(COc2cc(OCc3cncc(C#N)c3)c(CN[C@@H]3CCC[C@@H]3O)cc2Cl)cccc1-c1cccc(-c2ccc3c(c2)CCC3N2CC[C@H](CC(=O)O)C2)c1C` (stereo partly drawn) [Example 584]: 38.6 nM, 0.124 nM and 149 nM.
The matching figures for `COc1nc(-c2cccc(-c3cccc4c3CC[C@@H]4Oc3nc(OCc4cncc(C#N)c4)c(CN[C@@](C)(CO)C(=O)O)cc3Br)c2Cl)ccc1C1=NCCN1` [Example 744]: 9.53 nM, 0.064 nM and 44 nM.
For `Cc1c(COc2cc(OCc3cncc(C#N)c3)c(CNC[C@@H](O)CC(=O)O)cc2Cl)cccc1-c1cccc(-c2ccc(C3=NCCN3)c(OCCCC#N)c2)c1C` [Example 465], the concentration at half-maximal activity (AC50) at PD-L1 is 84.8 nM. Moreover, the 50% inhibitory concentration (IC50) at PD-1/PD-L1 came to 0.116 nM. Moreover, the EC50 at PD-1/PD-L1 interaction is 193 nM.
For the compound `C[C@@](CO)(NCc1cc(Cl)c(O[C@H]2CCc3c(-c4cccc5c4CC[C@@H]5Oc4nc(OCc5cncc(C#N)c5)c(CNCCO)cc4Cl)cccc32)nc1OCc1cncc(C#N)c1)C(=O)O` [Example 295], the AC50 on PD-L1 worked out at 67.6 nM. Also, the IC50 on PD-1/PD-L1 is 0.312 nM. Also, the concentration giving a half-maximal response (EC50) at PD-1/PD-L1 interaction came out at 279 nM.
In the same order, the values of `COc1ccc2cc(-c3cccc(-c4cccc(COc5cc(OCc6cncc(C#N)c6)c(CNC[C@@H](O)CC(=O)O)cc5Cl)c4C)c3C)ccc2c1CNC[C@@H](O)CC(=O)O` [Example 468] are 131 nM, 0.558 nM and 183 nM.
For `COc1nc(O[C@H]2CCc3c(-c4cccc(-c5cc(C)c(CNC[C@@H]6CCC(=O)N6)c(OC)n5)c4Cl)cccc32)c(Cl)cc1CN1CC[C@H](C(=O)O)C1` [Example 491], the AC50 at PD-L1 came to 19.8 nM. Further, the IC50 on PD-1/PD-L1 turned out to be 0.064 nM. At PD-1/PD-L1 interaction, the EC50 amounted to 21 nM.
In the same order, the values of `COc1nc(-c2cccc(-c3cccc(-c4ccc5c(c4)CCC5N)c3Cl)c2Cl)ccc1C1=NCCN1` (stereo not drawn) [Example 624] are 20.9 nM, 0.109 nM and at least 50000 nM.
In the same order, the values of `COc1nc(-c2cccc(-c3cccc4c3CC[C@@H]4Oc3nc(OC)c(CN4CC[C@H](C(=O)O)C4)cc3Cl)c2Cl)ccc1CN1CC2(CCC(=O)N2)C1` [Example 714] are 66.3 nM, 0.064 nM and 26 nM.
The matching figures for `COc1nc(-c2cccc(-c3cccc4c3CC[C@@H]4Oc3nc(OC)c(CN4CCCC(O)(C(=O)O)C4)cc3Cl)c2Cl)ccc1CNC[C@@H]1CCC(=O)N1` (stereo partly drawn) [Example 762]: 13.6 nM, 0.064 nM and 18 nM.
As to `COc1cc(-c2cccc(-c3cccc(COc4cc(OCc5cncc(C#N)c5)c(CNC[C@@H](O)CC(=O)O)cc4Cl)c3C)c2C)ccc1C1=NCCN1` [Example 502], at PD-L1, the AC50 amounted to 85.2 nM. Also, the IC50 on PD-1/PD-L1 is 0.081 nM. Also, the EC50 on PD-1/PD-L1 interaction amounted to 100 nM.
The matching figures for `COc1nc(O[C@H]2CCc3c(-c4cccc(-c5ccc(CNC[C@@H]6CCC(=O)N6)c(OC(F)F)c5)c4Cl)cccc32)c(Cl)cc1CNC[C@@H]1CCC(=O)N1` [Example 657]: 156 nM, 0.795 nM and 197 nM.
The matching figures for `CCOC(=O)[C@@H]1CCCCN1Cc1cc(Br)c(O[C@H]2CCc3c(-c4cccc(-c5ccc(C6=NCCN6)c(OC)n5)c4Cl)cccc32)nc1OC` [Example 776]: at least 10000 nM, 8.31 nM and 1440 nM.
In the same order, the values of `Cc1c(COc2cc(OCc3cncc(C#N)c3)c(CN[C@@](C)(CO)C(=O)O)cc2Cl)cccc1-c1c(F)ccc(-c2ccc(CN(C)C)cc2)c1Cl` [Example 301, (2S)-2-((5-chloro-4-((2′-chloro-4″-((dimethylamino)methyl)-6′-fluoro-2-methyl-[1,1′:3′,1″-terphenyl]-3-yl)methoxy)-2-((5-cyanopyridin-3-yl)methoxy)benzyl)amino)-3-hydroxy-2-methylpropanoic acid] are 95.9 nM, 0.109 nM and 1020 nM.
As for `Cc1c(COc2cc(OCc3cncc(C#N)c3)c(CN[C@@](C)(CO)C(=O)O)cc2Cl)cccc1-c1cccc(-c2ccc(CNCCCS(N)(=O)=O)cc2)c1C` [Example 570], the half-maximal activity concentration (AC50) at PD-L1 came out at 56.5 nM. For the same compound, the 50% inhibitory concentration (IC50) at PD-1/PD-L1 stood at 0.092 nM. Besides, the concentration for a half-maximal effect (EC50) at PD-1/PD-L1 interaction is 115 nM.
In the same order, the values of `Cc1c(COc2cc(OCc3cncc(C#N)c3)c(CNC[C@@H](O)CC(=O)O)cc2Cl)cccc1-c1cccc(-c2nc3cc(CNC[C@@H](O)CC(=O)O)ccc3o2)c1C` [Example 593] are 124 nM, 0.064 nM and 113 nM.
The matching figures for `CC(=O)N1CC2(CN(Cc3cn(C)c4nc(-c5cccc(-c6cccc(-c7cnc8c(CN9CC%10(C9)CN(C(C)=O)C%10)cn(C)c8n7)c6Cl)c5Cl)cnc34)C2)C1` [Example 587]: 324 nM, 0.145 nM and 45 nM.
`Cc1c(COc2cc(OCc3cncc(C#N)c3)c(CNC(C)(C)C(=O)O)cc2Cl)cccc1-c1cccc(-c2ccc(CN(C)C)cc2)c1Br` [Example 482]: the half-maximal activity concentration (AC50) on PD-L1 worked out at 25.5 nM. Besides, on PD-1/PD-L1, the IC50 was found to be 0.064 nM. Besides, the EC50 at PD-1/PD-L1 interaction was found to be 47 nM.
As to `COc1nc(-c2cccc(-c3cccc(COc4nc(OCc5cncc(C#N)c5)c(CNC[C@@H]5CCC(=O)N5)cc4Br)c3Cl)c2Cl)ccc1C1=NCCN1` [Example 556], the AC50 at PD-L1 was determined as 37.7 nM. For the same compound, the IC50 on PD-1/PD-L1 turned out to be 0.194 nM. The EC50 at PD-1/PD-L1 interaction turned out to be 86 nM.
As for `COc1nc(O[C@H]2CCc3c(-c4cccc(-c5ccc(C6=NCCN6)c(OC)n5)c4Cl)cccc32)c(Br)cc1CN[C@](C)(CO)C(=O)O` [Example 788], at PD-L1, the half-maximal activity concentration (AC50) worked out at 11.8 nM. Moreover, the half-maximal inhibitory concentration (IC50) on PD-1/PD-L1 stood at 0.064 nM. The EC50 at PD-1/PD-L1 interaction was found to be 39 nM.
Turning to `C[C@@](CO)(NCc1cc(Cl)c(O[C@H]2CCc3c(-c4cccc(-c5ccc6c(c5)CC(N)C6)c4Cl)cccc32)nc1OCc1cncc(C#N)c1)C(=O)O` (stereo partly drawn) [Example 795], the concentration at half-maximal activity (AC50) at PD-L1 was 9.65 nM. Moreover, the IC50 at PD-1/PD-L1 stood at 0.064 nM. For the same compound, the half-maximal effective concentration (EC50) at PD-1/PD-L1 interaction came to 41 nM.
As to `COc1nc(-c2cccc(-c3cccc4c3CC[C@@H]4Oc3nc(OC)c(CNC[C@@H]4CCC(=O)N4)cc3Br)c2Cl)ccc1CNC[C@@H]1CCC(=O)N1` [Example 736], the AC50 on PD-L1 worked out at 18.4 nM. Moreover, on PD-1/PD-L1, the IC50 came out at 0.153 nM. Moreover, on PD-1/PD-L1 interaction, the EC50 amounted to 22 nM.
In the same order, the values of `Cc1c(-c2ccc(OCCNC[C@@H](O)CC(=O)O)cc2)cccc1-c1cccc2c1CC[C@@H]2Oc1nc(OCc2cccc(C#N)c2)c(CNC[C@@H](O)CC(=O)O)cc1Br` [Example 755] are 39.2 nM, 0.155 nM and 139 nM.
Take `Cc1c(COc2cc(OCc3cncc(C#N)c3)c(CNC[C@@H](O)CC(=O)O)cc2Cl)cccc1-c1cccc(-c2ccc(CN3CC[C@H](O)C3)cc2)c1C` [Example 335, (S)-4-((5-chloro-2-((5-cyanopyridin-3-yl)methoxy)-4-((4″-(((S)-3-hydroxypyrrolidin-1-yl)methyl)-2,2′-dimethyl-[1,1′:3′,1″-terphenyl]-3-yl)methoxy)benzyl)amino)-3-hydroxybutanoic acid]: the concentration at half-maximal activity (AC50) on PD-L1 is 231 nM. The half-maximal inhibitory concentration (IC50) on PD-1/PD-L1 turned out to be 0.414 nM. Moreover, at PD-1/PD-L1 interaction, the EC50 came out at 437 nM.

The values are drawn from patent publication US12590062B2, “PD-1/PD-L1 inhibitors” (Gilead Sciences, Inc., priority 2017, dated 2026).
